Source: patent US9526766B2, “Potentiation of antibiotic treatment with a protein-lipid complex” (priority 2012, dated 2016)
“Also recorded” adds a separate entry of the source.

Assays:
[1] = tested on: Streptococcus pneumoniae; assay: Short-time kill assay on planktonic cultures; format: cell-based; conditions: for Minimum antibiotic concentration for bactericidal (>3 log10) activity, planktonic: within 4-6 hours, antibiotic alone
Description: Methodology: In late logarithmic growth phase, the bacteria were harvested by centrifugation at 12,000×g for 10 minutes and resuspended in phosphate-buffered saline (PBS; […], […], […], pH 7.4). Appropriate dilutions of the bacteria were suspended in PBS and treated with indicated concentrations of ALAFAC and/or antibiotics for various times. The effect on bacterial viability was assessed by plating serial dilutions of bacterial sample on tryptic soy agar plates containing 5% sheep blood (viable counts) and determining viable colony forming units after overnight growth at 37° C.
Short-time kill assays. In late logarithmic growth phase, the bacteria were harvested by centrifugation at 12,000×g for 10 minutes and resuspended in phosphate-buffered saline (PBS; 30 mM Na2HPO4, 10 mM KH2PO4, […], pH 7.4). Appropriate concentrations of the bacteria (around 10^8 colony forming units per ml) were suspended in PBS and treated with indicated concentrations of ALAFAC and/or antibiotics for various times. The effect on bacterial viability was assessed by plating serial dilutions of bacterial sample on tryptic soy agar plates containing 5% sheep blood (viable counts) and determining viable CFUs after overnight growth at 37° C.

[2] = tested on: S. pneumoniae nasopharyngeal colonization; assay: Murine nasopharyngeal colonization model, intranasal treatment; format: in vivo, Streptococcus pneumoniae; conditions: for Minimum antibiotic concentration for bactericidal (>3 log10) activity on murine nasopharyngeal colonization: mice, within 12 hours, antibiotic alone; for Colonization level / bacterial burden: mice colonized with SP670 for 48 hours, penicillin up to 100 μg (5,000 μg/ml) intranasally, ALAFAC 50 μg, alone or combined, 12 hours
Description: Methodology: Six-week-old female BALB/cByJ mice from Jackson Laboratories (Bar Harbor, Me., U.S.A.) were maintained in filter-top cages on standard laboratory chow and water ad libitum until use. Mice were colonized as described previously. In short, 20 μl of a bacterial suspension containing 5×10^6 CFUs of EF3030 pneumococci, 1×10^8 CFUs of SP670 pneumococci, or 5×10^7 NRS70 methicillin-resistant S. aureus in PBS were pipetted into the nares of non-anesthetized mice. […] Colonization burden was then assessed after euthanizing the animals by enumerating viable bacteria from harvested nasopharyngeal tissue after the nasal wash. Nasopharyngeal tissue was dissected out as described by removing the upper skull bone, and harvesting the tissue present in the nasal conchae with forceps. Bacterial load was measured by determining viable plate counts from the homogenized tissue.
Mice were colonized as described. In short, 20 μl of a bacterial suspension containing 5×10^6 CFUs of EF3030 pneumococci in PBS or 1×10^8 CFUs of SP670 pneumococci in PBS were pipetted into the nares of non-anesthetized mice. […] Colonization burden was then assessed after euthanizing the animals by enumerating viable bacteria both in a nasopharyngeal lavage obtained by injecting 100 μL PBS in the trachea of mice and collecting it as it flowed out the nares, and from harvested nasopharyngeal tissue after the nasal wash. Nasopharyngeal tissue was dissected out as described by removing the upper skull bone, and harvesting the tissue present in the nasal conchae with forceps. Bacterial load was measured by determining viable plate counts from the nasal lavage or from homogenized tissue.

[3] = tested on: Staphylococcus aureus; assay: MIC by broth microdilution, antibiotics with and without ALAFAC; format: cell-based; conditions: antibiotic alone
Procedure, shortened: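 Broth microdilution per CLSI in tryptic soy broth, two-fold antibiotic dilutions in triplicate with or without ALAFAC, inoculum 10^5 CFU/mL. Incubated 24 h at 37 °C with OD600 read every 5 min; MIC is lowest concentration showing no OD600 increase.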

[4] = tested on: Staphylococcus aureus biofilms; assay: Static biofilm model, viable counts; format: cell-based; conditions: NRS 1 and NRS 384 biofilms; ALAFAC 500 μg/ml (30 μM), gentamicin 50 μg/ml (105 μM), alone or combined
Description: Static Biofilm Model. Staphylococci were grown in TSB to mid-logarithmic phase (OD600=0.5), washed, and resuspended in fresh pre-warmed medium to a density of 2×10^4 CFU in 500 μl volume, and suspensions were used to seed polystyrene 24-well plates. Bacteria were cultured at 37° C. for 12 hours, after which biofilms were washed with PBS to eliminate planktonic bacteria and were exposed to TSB with indicated concentrations of ALAFAC and/or antibiotics for 24 hours at 37° C. Biofilms were then washed in PBS, sonicated and detached by scraping the surface in the presence of 100 μL PBS followed by a rinse with 100 μL PBS. Collected cells were vortexed twice for 20 seconds at high speed and the dispersed biofilm cells were first observed by microscopy to ensure proper dispersion and then diluted in a 10-fold dilution series where 100 μl of each dilution was plated on blood agar plates to determine viable CFUs per ml after overnight growth at 37° C. Colony counts from plates carrying 20-200 colonies were used to determine the viable counts and are reported as the total number of colony-forming units per biofilm.

## CC1(C)S[C@@H]2[C@H](NC(=O)Cc3ccccc3)C(=O)N2[C@H]1C(=O)O [Penicillin, penicillin G]
[1]; D39, 4 hours, ALAFAC 50 μg/ml, penicillin G 20 μg/ml, alone or combined, 7.5 log10 inoculum
  Short-time killing (death of inoculum): no bactericidal activity; also recorded: no death
[1]; D39, penicillin G alone at 5,000 μg/ml, 4 hours
  Short-time killing: ≤ 2.6 log10
[1]; D39, penicillin alone at 50-fold higher concentration (1,000 μg/ml), 4 hours
  Short-time killing: ≤ 2.6 log10
[1]; D39 and EF3030, 1 hour, penicillin G up to 5,000 μg/ml, erythromycin up to 1,000 μg/ml
  Bactericidal activity alone: lacked any bactericidal activity
[1]; S. pneumoniae D39
  Minimum antibiotic concentration for bactericidal (>3 log10) activity, planktonic: >5,000 μg/ml
[1]; S. pneumoniae SP670
  Minimum antibiotic concentration for bactericidal (>3 log10) activity, planktonic: >5,000 μg/ml
[1]; SP670, penicillin 30 μg/mL alone or with ALAFAC 50 μg/mL, 4 hours
  Short-time killing: no bactericidal activity
[2]; SP670
  Minimum antibiotic concentration for bactericidal (>3 log10) activity on murine nasopharyngeal colonization: >100 μg/dose
[2]
  Colonization level / bacterial burden: no effect
[2]; listed as Penicillin G
  Colonization level / bacterial burden: no effect
[2]; listed as penicillin
  Colonization level / bacterial burden: no effect; also recorded: completely resistant
[2]; listed as penicillin G
  Colonization level / bacterial burden: no change in colonization

## gentamicin
[3]; S. aureus NRS1
  MIC: >128 µg/mL
[3]; S. aureus NRS384
  MIC: 1 µg/mL
[1]; D39, 1 hour, ALAFAC 50 μg/ml, gentamicin 50 μg/ml, alone or combined, 7.7 log10 inoculum
  Short-time killing: insignificant killing
[1]; S. pneumoniae D39
  Minimum antibiotic concentration for bactericidal (>3 log10) activity, planktonic: >500 μg/ml
[1]; S. pneumoniae EF3030
  Minimum antibiotic concentration for bactericidal (>3 log10) activity, planktonic: >500 μg/ml
[1]; gentamicin alone at high concentrations, up to 1,000 μg/ml, 1 hour
  Short-time killing: 1.4 log10
[1]; gentamicin alone at high concentrations, up to 1,000 μg/ml, 1 hour, listed as gentamicin
  Short-time killing: ≤ 1.4 log10
[4]
  Biofilm viability: Neither ALAFAC (500 μg/ml; 30 μM) nor gentamicin (50 μg/ml; 105 μM) had any effect
[2]; EF3030, gentamicin alone
  Dose concentration required to eradicate nasal lavage-associated bacteria: 1,500 μg/ml
[2]; EF3030
  Minimum antibiotic concentration for bactericidal (>3 log10) activity on murine nasopharyngeal colonization: 100 μg/dose
[2]; EF3030, nasal lavage, gentamicin alone
  Gentamicin dose at which reduction of bacterial burden starts: 3 μg/mouse
[2]; EF3030, nasopharyngeal tissues, gentamicin alone
  Gentamicin dose at which reduction of bacterial burden starts: 10 μg/mouse
